Tests used:
[1] = system: colorectal cancer cell line HCT116; assay: WST-1 cancer cell killing (cell survival) test in colorectal cancer cell line HCT116; format: cell-based, human; conditions: 48 hours; for Cell survival rate (%) Combined treatment with abemaciclib: antidepressant at Table 1 concentration combined with 0.2 μM abemaciclib; for Cell survival rate (%) Combined treatment with palbociclib: antidepressant at Table 1 concentration combined with 5 μM palbociclib; for Cell survival rate (%) Combined treatment with ribociclib: antidepressant at Table 1 concentration combined with 20 μM ribociclib; for Cell survival rate (%) Treatment with antidepressants alone: imipramine 100, clomipramine 40, desipramine 20, amitriptyline 25, imipramine blue 0.4 μM (Table 1)
Protocol: (§2) This experiment was conducted on the lung cancer cell line H460, the colorectal cancer cell line HCT116, and the breast cancer cell line MCF7. […] The cell lines H460 and MCF7 were cultured using RPMI1640 medium containing 10% FBS and 1% penicillin-streptomycin, and the cell line HCT116 was cultured using McCoy's 5A medium containing 10% FBS and 1% penicillin-streptomycin.
(§3) The cell lines H460, HCT116 and MCF7 were cultured at 3×10^3 cells/well in a 96 well plate. The next day, each drug was prepared at the concentrations shown in Tables 1 and 2, mixed with the medium, and then added to each well and left for 48 hours. After 48 hours, 10 ul/well of WST-1 reagent was added thereto and reacted for 1 hour. Samples reacted with WST-1 were analyzed by ELISA at 450 nM, and the same conditions were repeated three times to calculate the average value and standard error.

[2] = system: breast cancer cell line MCF7; assay: WST-1 cancer cell killing (cell survival) test in breast cancer cell line MCF7; format: cell-based; conditions: 48 hours; for Cell survival rate (%) Combined treatment with abemaciclib: antidepressant at Table 1 concentration combined with 10 μM abemaciclib; for Cell survival rate (%) Combined treatment with palbociclib: antidepressant at Table 1 concentration combined with 20 μM palbociclib; for Cell survival rate (%) Combined treatment with ribociclib: antidepressant at Table 1 concentration combined with 30 μM ribociclib; for Cell survival rate (%) Treatment with antidepressants alone: imipramine 50, clomipramine 20, desipramine 50, amitriptyline 50, imipramine blue 0.1 μM (Table 1)
Protocol: This experiment was conducted on the lung cancer cell line H460, the colorectal cancer cell line HCT116, and the breast cancer cell line MCF7. As for the genetic characteristics of each cell line, the lung cancer cell line H460 has a KRAS mutation [p.Q61H], the colorectal cancer cell line HCT116 has a KRAS mutation [p.G13D], and the breast cancer cell line MCF7 has the characteristic of being positive for estrogen receptor and progesterone receptor but negative for HER2. The cell lines H460 and MCF7 were cultured using RPMI1640 medium containing 10% FBS and 1% penicillin-streptomycin, and the cell line HCT116 was cultured using McCoy's 5A medium containing 10% FBS and 1% penicillin-streptomycin.
Specifically, abemaciclib, ribociclib and palbociclib were used as CDK4/6 inhibitors, and DMSO was used as a solvent to prepare the drug stock. […] Each drug was used after diluting to the concentrations shown in Table 1 (antidepressant concentration used (μM)) and Table 2 (CDK4/6 inhibitor concentration used (μM)) below.
The cell lines H460, HCT116 and MCF7 were cultured at 3×10^3 cells/well in a 96 well plate. The next day, each drug was prepared at the concentrations shown in Tables 1 and 2, mixed with the medium, and then added to each well and left for 48 hours. After 48 hours, 10 ul/well of WST-1 reagent was added thereto and reacted for 1 hour. Samples reacted with WST-1 were analyzed by ELISA at […], and the same conditions were repeated three times to calculate the average value and standard error.

[3] = system: lung cancer cell line H460; assay: WST-1 cancer cell killing (cell survival) test in lung cancer cell line H460; format: cell-based; conditions: 48 hours; for Cell survival rate (%) Combined treatment with abemaciclib: antidepressant at Table 1 concentration combined with 4 μM abemaciclib; for Cell survival rate (%) Combined treatment with palbociclib: antidepressant at Table 1 concentration combined with 15 μM palbociclib; for Cell survival rate (%) Combined treatment with ribociclib: antidepressant at Table 1 concentration combined with 50 μM ribociclib; for Cell survival rate (%) Treatment with antidepressants alone: imipramine 100, clomipramine 40, desipramine 50, amitriptyline 45, imipramine blue 0.5 μM (Table 1)
Protocol: as §2, §3

[4] = Toxicity evaluation: hematoxylin and eosin histology of major normal organs; format: in vivo, nude mice (Balb/c nude); conditions: day 14; hematoxylin and eosin staining; desipramine 20 mg/kg intraperitoneally, abemaciclib 30 mg/kg orally, once a day
Protocol: (§1) Specifically, the human colorectal cancer cell line HCT116 was purchased from the American Type Culture Collection (ATCC, USA) and cultured in McCoy's 5A medium containing 10% fetal bovine serum (FBS) and penicillin-streptomycin under conditions of 37° C., 5% carbon dioxide and standard humidity.

[5] = Toxicity evaluation: body weight for 14 days; format: in vivo, nude mice (Balb/c nude); conditions: measured for 14 days; desipramine 20 mg/kg intraperitoneally, abemaciclib 30 mg/kg orally, once a day
Protocol: as §1

[6] = system: colorectal cancer cell line HCT116 subcutaneous tumor; assay: Tumor growth inhibition in HCT116 subcutaneous tumor model; format: in vivo, nude mice (Balb/c nude); design: reference not given here; conditions: HCT116 subcutaneous tumor in nude mice, desipramine 20 mg/kg intraperitoneally, abemaciclib 30 mg/kg orally, once a day
Protocol: To evaluate the anti-tumor effect, the tumor size was measured every day until day 14 after treatment, and the differences between each group were analyzed. The tumor size was calculated as follows: V (mm^3)=1/2×long axis (mm)×short axis (mm)×height (mm). By day 14, the tumor size was measured, a tumor growth graph was created, and the tumor size between each group was compared and analyzed.

| SMILES | Cell survival rate (%) Combined treatment with abemaciclib [1] [%] | Cell survival rate (%) Combined treatment with palbociclib [1] [%] | Cell survival rate (%) Combined treatment with ribociclib [1] [%] | Cell survival rate (%) Treatment with antidepressants alone [1] [%] | Cell survival rate (%) Combined treatment with abemaciclib [2] [%] | Cell survival rate (%) Combined treatment with palbociclib [2] [%] | Cell survival rate (%) Combined treatment with ribociclib [2] [%] | Cell survival rate (%) Treatment with antidepressants alone [2] [%] | Cell survival rate (%) Combined treatment with abemaciclib [3] [%] | Cell survival rate (%) Combined treatment with palbociclib [3] [%] | Cell survival rate (%) Combined treatment with ribociclib [3] [%] | Cell survival rate (%) Treatment with antidepressants alone [3] [%] | also measured |
| --- | --- | --- | --- | --- | --- | --- | --- | --- | --- | --- | --- | --- | --- |
| CN(C)CCC=C1c2ccccc2CCc2ccccc21 [Amitriptyline] | 64 | 54 | 46 | 86 | 21 | 45 | 28 | 63 | 50 | 58 | 32 | 65 | – |
| CN(C)CCCN1c2ccccc2CCc2ccc(Cl)cc21 [Clomipramine] | 32 | 34 | 23 | 65 | 37 | 43 | 56 | 81 | 20 | 33 | 34 | 65 | – |
| CNCCCN1c2ccccc2CCc2ccccc21 [Desipramine] | 28 | 44 | 29 | 71 | – | – | – | 60 | 24 | 14 | 16 | 40 | histological changes of major organs (heart, lung, liver, spleen, kidney) compared to the control group [4]: no histological changes; body weight difference between groups [5]: no significant difference in body weight; tumor size on day 14 [6]: 75.2% |
| CCN(CC)c1ccc(C(c2ccc(N(CC)CC)cc2)=c2ccc3c(c2)CCc2ccccc2[N+]=3CCCN(C)C)cc1 [Imipramine blue] | 39 | 43 | 31 | 53 | 43 | 59 | 60 | 88 | 50 | 36 | 36 | 62 | – |
| CN(C)CCCN1c2ccccc2CCc2ccccc21 [Imipramine] | 58 | 41 | 39 | – | 34 | 53 | 55 | – | 20 | 53 | 47 | – | – |
| CCN1CCN(Cc2ccc(Nc3ncc(F)c(-c4cc(F)c5nc(C)n(C(C)C)c5c4)n3)nc2)CC1 [abemaciclib] | – | – | – | – | – | – | – | – | – | – | – | – | histological changes of major organs (heart, lung, liver, spleen, kidney) compared to the control group [4]: no histological changes; colorectal cancer cell survival rate, abemaciclib alone ([1]; 0.2 μM abemaciclib alone, WST-1): 87%; body weight difference between groups [5]: no significant difference in body weight; breast cancer cell survival rate, abemaciclib alone ([2]; 10 μM abemaciclib alone, WST-1): 59%; tumor size on day 14 [6]: 54.6%; lung cancer cell survival rate, abemaciclib alone ([3]; 4 μM abemaciclib alone, WST-1): 71% |
| CC(=O)c1c(C)c2cnc(Nc3ccc(N4CCNCC4)cn3)nc2n(C2CCCC2)c1=O [palbociclib] | – | – | – | – | – | – | – | – | – | – | – | – | colorectal cancer cell survival rate, palbociclib alone (HCT116 section) ([1]; 5 μM palbociclib alone, WST-1): 79%; breast cancer cell survival rate, palbociclib alone ([2]; 20 μM palbociclib alone, WST-1): 75%; lung cancer cell survival rate, palbociclib alone ([3]; 15 μM palbociclib alone, WST-1): 67% |
| CN(C)C(=O)c1cc2cnc(Nc3ccc(N4CCNCC4)cn3)nc2n1C1CCCC1 [ribociclib] | – | – | – | – | – | – | – | – | – | – | – | – | colorectal cancer cell survival rate, ribociclib alone ([1]; 20 μM ribociclib alone, WST-1): 73%; breast cancer cell survival rate, ribociclib alone ([2]; 30 μM ribociclib alone, WST-1): 80%; lung cancer cell survival rate, ribociclib alone ([3]; 50 μM ribociclib alone, WST-1): 72% |
